Patent US9795140B2, “Molecules having pesticidal utility, and intermediates, compositions, and processes, related thereto” (priority 2015, dated 2017)

Experiments:
Type in all cases: in vivo
[1] = test system: Green Peach Aphid (Myzus persicae, MYZUPE); test: Bioassay on Green Peach Aphid (GPA), foliar spray on cabbage seedlings; settings: 72 h, 200 ppm spray on infested cabbage seedlings, three days, Abbott corrected % control, read-out: GPA % Control (or Mortality) rating
Procedure: Certain molecules disclosed in this document were tested against GPA using procedures described in the following example. In the reporting of the results, the “GPA & YFM Rating Table” was used (See Table Section).
Cabbage seedlings grown in 3-inch pots, with 2-3 small (3-5 cm) true leaves, were used as test substrate. The seedlings were infested with 20-50 GPA (wingless adult and nymph stages) one day prior to chemical application. Four pots with individual seedlings were used for each treatment. Test molecules (2 mg) were dissolved in 2 mL of acetone/methanol (1:1) solvent, forming stock solutions of 1000 ppm test molecule. The stock solutions were diluted 5× with 0.025% Tween 20 in water to obtain the solution at 200 ppm test molecule. A hand-held aspirator-type sprayer was used for spraying a solution to both sides of […] leaves until runoff. Reference plants (solvent check) were sprayed with the diluent only containing 20% by volume of acetone/methanol (1:1) solvent. Treated plants were held in a holding room for three days at approximately 25° C. and ambient relative humidity (RH) prior to grading. Evaluation was conducted by counting the number of live aphids per plant under a microscope. Percent control was measured using Abbott's correction formula (W. S. Abbott, “A Method of Computing the Effectiveness of an Insecticide” J. Econ. Entomol. 18 (1925), pp. 265-267) as follows. Corrected % Control=100*(X−Y)/X where X=No. of live aphids on solvent check plants and Y=No. of live aphids on treated plants. The results are indicated in the table entitled “Table ABC: Biological Results” (See Table Section).

[2] = test system: Yellow Fever Mosquito (Aedes aegypti, AEDSAE); test: Bioassay on Yellow Fever Mosquito (YFM) larvae, 96-well plate; settings: about 1 day-old larvae, room temperature, 3 days, scored on mortality
Summary of the method: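 Aedes aegypti larvae (about 1 day old) in liver-powder water were added to plates dispensed from DMSO master plates (4000 ppm stock) diluted with 90:10 water/acetone; six replicate plates per master. Lidded plates were held at room temperature for 3 days, then each well was scored for mortality.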

[3] = test system: Cabbage Looper (Trichoplusia ni, TRIPNI); test: Bioassay on Cabbage Looper (CL), 128-well diet tray assay; settings: 168 h, 50 μg/cm^2 on artificial diet, second instar larvae, 25° C., five to seven days, average of eight wells, read-out: CL % Control (or Mortality) rating
Summary of the method: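 Percent larval mortality, averaged across eight replicate wells, was scored after 5–7 days at 25 °C with a 14:10 photoperiod. Each well held 1 mL diet surface-treated at 50 μg/cm^2 with test molecule from a 90:10 acetone-water solution, then dried. Wells were infested with one to five second-instar cabbage loopers.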

[4] = test system: Beet Armyworm (Spodoptera exigua, LAPHEG); test: Bioassay on Beet Armyworm (BAW), 128-well diet tray assay; settings: 168 h, 50 μg/cm^2 on artificial diet, second instar larvae, 25° C., five to seven days, average of eight wells, read-out: BAW % Control (or Mortality) rating
Summary of the method: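 Test molecule dissolved in acetone-water 90:10 is applied at 50 μg/cm^2 onto artificial diet and allowed to dry. Second instar larvae, one to five per well, are then added, and trays are vented and kept at 25° C. for five to seven days before mortality is scored.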

| SMILES | mortality at 200 ppm [1] [%] | YFM % Control (or Mortality) rating [2] | mortality at 50 µg/cm2 [3] [%] | mortality at 50 µg/cm2 [4] [%] |
| --- | --- | --- | --- | --- |
| O=C(NCCCOCC(F)(F)F)c1cc(NC(=O)[C@H]2[C@H](c3cc(Cl)cc(Cl)c3)C2(Cl)Cl)ccc1Cl (relative stereo) [F39, trans-2-Chloro-5-(2,2-dichloro-3-(3,5-dichlorophenyl)cyclopropane-1-carboxamido)-N-(3-(2,2,2-trifluoroethoxy)propyl)benzamide] | 80 to 100 | A (80-100) | 50 to 100 | 50 to 100 |
| O=C(NOCC1CC1(F)F)c1cc(NC(=O)C2C(c3cc(Cl)c(Cl)c(Cl)c3)C2(Cl)Cl)ccc1Cl (stereo not drawn) [F23, trans-N-2-Chloro-5-(2,2-dichloro-3-(3,4,5-trichlorophenyl)cyclopropane-1-carboxamido)-N-((2,2-difluorocyclopropyl)methoxy)benzamide] | 80 to 100 | B (More than 0-Less than 80) | 50 to 100 | 50 to 100 |
| O=C(NCc1ccc(F)c(F)c1)c1cc(NC(=O)[C@H]2[C@H](c3cc(Cl)cc(Cl)c3)C2(Cl)Cl)ccc1Cl (relative stereo) [F32, trans-2-Chloro-5-(2,2-dichloro-3-(3,5-dichlorophenyl)cyclopropane-1-carboxamido)-N-(3,4-difluorobenzyl)benzamide] | 0 to 80 | A (80-100) | 50 to 100 | 50 to 100 |
| O=C(NCC1CC1)c1cc(NC(=O)[C@H]2[C@H](c3cc(Cl)cc(Cl)c3)C2(Cl)Cl)ccc1Cl (relative stereo) [F35, trans-2-Chloro-N-(cyclopropylmethyl)-5-(2,2-dichloro-3-(3,5-dichlorophenyl)cyclopropane-1-carboxamido)benzamide] | 80 to 100 | A (80-100) | 50 to 100 | 50 to 100 |
| N#CCCNC(=O)c1cc(NC(=O)[C@H]2[C@H](c3cc(Cl)cc(Cl)c3)C2(Cl)Cl)ccc1Cl (relative stereo) [F37, trans-2-Chloro-N-(2-cyanoethyl)-5-(2,2-dichloro-3-(3,5-dichlorophenyl)cyclopropane-1-carboxamido)benzamide] | 0 to 80 | A (80-100) | 50 to 100 | 50 to 100 |
| O=C(NOc1ccccc1)c1cc(NC(=O)[C@H]2[C@H](c3cc(Cl)cc(Cl)c3)C2(Cl)Cl)ccc1Cl (relative stereo) [F29, trans-2-chloro-5-(2,2-dichloro-3-(3,5-dichlorophenyl)cyclopropane-1-carboxamido)-N-phenoxybenzamide] | 0 to 80 | A (80-100) | 0 | 0 |
| O=C(NCc1ccccc1)c1cc(NC(=O)[C@H]2[C@H](c3cc(Cl)cc(Cl)c3)C2(Cl)Cl)ccc1Cl (relative stereo) [F27, trans-N-benzyl-2-chloro-5-(2,2-dichloro-3-(3,5-dichlorophenyl)cyclopropane-1-carboxamido)benzamide] | 0 to 80 | A (80-100) | 50 to 100 | 50 to 100 |
| CNC(=O)c1cc(NC(=O)[C@H]2[C@H](c3cc(Cl)cc(Cl)c3)C2(Cl)Cl)ccc1C(F)(F)F (relative stereo) [F2, trans-5-(2,2-Dichloro-3-(3,5-dichlorophenyl)cyclopropane-1-carboxamido)-N-methyl-2-(trifluoromethyl)benzamide] | 0 to 80 | A (80-100) | 50 to 100 | 50 to 100 |
| COc1ccc(CNC(=O)c2cc(NC(=O)[C@H]3[C@H](c4cc(Cl)cc(Cl)c4)C3(Cl)Cl)ccc2Cl)c(OC)c1 (relative stereo) [F34, trans-2-Chloro-5-(2,2-dichloro-3-(3,5-dichlorophenyl)cyclopropane-1-carboxamido)-N-(2,4-dimethoxybenzyl)benzamide] | 0 | A (80-100) | 50 to 100 | 50 to 100 |
| O=C(NCCCF)c1cc(NC(=O)[C@H]2[C@H](c3cc(Cl)cc(Cl)c3)C2(Cl)Cl)ccc1Cl (relative stereo) [F44, trans-2-Chloro-5-(2,2-dichloro-3-(3,5-dichlorophenyl)cyclopropane-1-carboxamido)-N-(3-fluoropropyl)benzamide] | 80 to 100 | A (80-100) | 50 to 100 | 50 to 100 |
| O=C(NCCc1ccc(F)cc1)c1cc(NC(=O)C2C(c3cc(Cl)c(Cl)c(Cl)c3)C2(Cl)Cl)ccc1Cl (stereo not drawn) [F20, trans-N-2-Chloro-5-(2,2-dichloro-3-(3,4,5-trichlorophenyl)cyclopropane-1-carboxamido)-N-(4-fluorophenethyl)benzamide] | 0 to 80 | A (80-100) | 50 to 100 | 50 to 100 |
| O=C(NCc1ccncc1)c1cc(NC(=O)[C@H]2[C@H](c3cc(Cl)cc(Cl)c3)C2(Cl)Cl)ccc1Cl (relative stereo) [F12, trans-2-Chloro-5-(2,2-dichloro-3-(3,5-dichlorophenyl)cyclopropane-1-carboxamido)-N-(pyridin-4-ylmethyl)benzamide] | 0 to 80 | A (80-100) | 50 to 100 | 50 to 100 |
| C[C@H](CS(=O)(=O)CC(F)(F)F)NC(=O)c1cc(NC(=O)C2C(c3cc(Cl)cc(Cl)c3)C2(Cl)Cl)ccc1Cl (stereo in doubt) [PF6, trans-2-Chloro-5-(2,2-dichloro-3-(3,5-dichlorophenyl)cyclopropane-1-carboxamido)-N—((R)-1-((2,2,2-trifluoroethyl)sulfonyl)propan-2-yl)benzamide] | 0 to 80 | A (80-100) | 50 to 100 | 50 to 100 |
| O=C(NOCC1CC1)c1cc(NC(=O)C2C(c3cc(Cl)c(Cl)c(Cl)c3)C2(Cl)Cl)ccc1Cl (stereo not drawn) [F15, trans-N-2-Chloro-N-(cyclopropylmethoxy)-5-(2,2-dichloro-3-(3,4,5-trichlorophenyl)cyclopropane-1-carboxamido)benzamide] | 80 to 100 | A (80-100) | 50 to 100 | 50 to 100 |
| C#CCNC(=O)c1cc(NC(=O)[C@H]2[C@H](c3cc(Cl)cc(Cl)c3)C2(Cl)Cl)ccc1Cl (relative stereo) [F47, trans-2-Chloro-5-(2,2-dichloro-3-(3,5-dichlorophenyl)cyclopropane-1-carboxamido)-N-(prop-2-yn-1-yl)benzamide] | 80 to 100 | A (80-100) | 50 to 100 | 50 to 100 |
| CCCCNC(=O)c1cc(NC(=O)[C@H]2[C@H](c3cc(Cl)cc(Cl)c3)C2(Cl)Cl)ccc1Cl (relative stereo) [F45, trans-N-Butyl-2-chloro-5-(2,2-dichloro-3-(3,5-dichlorophenyl)cyclopropane-1-carboxamido)benzamide] | 80 to 100 | A (80-100) | 50 to 100 | 50 to 100 |
| CC(C)(CS(C)(=O)=O)NC(=O)c1cc(NC(=O)[C@H]2[C@H](c3cc(Cl)cc(Cl)c3)C2(Cl)Cl)ccc1Cl (relative stereo) [F42, trans-2-Chloro-5-(2,2-dichloro-3-(3,5-dichlorophenyl)cyclopropane-1-carboxamido)-N-(2-methyl-1-(methylsulfonyl)propan-2-yl)benzamide] | 0 to 80 | A (80-100) | 50 to 100 | 50 to 100 |
| O=C(NOCC1CC1)c1cc(NC(=O)C2C(c3cc(Cl)cc(Cl)c3)C2(Cl)Cl)ccc1Cl (stereo not drawn) [F16, trans-N-2-Chloro-N-(cyclopropylmethoxy)-5-(2,2-dichloro-3-(3,5-dichlorophenyl)cyclopropane-1-carboxamido)benzamide] | 0 to 80 | A (80-100) | 50 to 100 | 50 to 100 |
